In the experiment the target is T1, Prostaglandin G/H synthase 2 (Mus musculus, UniProt Q05769).
T1 sequence (Q05769 whole entry): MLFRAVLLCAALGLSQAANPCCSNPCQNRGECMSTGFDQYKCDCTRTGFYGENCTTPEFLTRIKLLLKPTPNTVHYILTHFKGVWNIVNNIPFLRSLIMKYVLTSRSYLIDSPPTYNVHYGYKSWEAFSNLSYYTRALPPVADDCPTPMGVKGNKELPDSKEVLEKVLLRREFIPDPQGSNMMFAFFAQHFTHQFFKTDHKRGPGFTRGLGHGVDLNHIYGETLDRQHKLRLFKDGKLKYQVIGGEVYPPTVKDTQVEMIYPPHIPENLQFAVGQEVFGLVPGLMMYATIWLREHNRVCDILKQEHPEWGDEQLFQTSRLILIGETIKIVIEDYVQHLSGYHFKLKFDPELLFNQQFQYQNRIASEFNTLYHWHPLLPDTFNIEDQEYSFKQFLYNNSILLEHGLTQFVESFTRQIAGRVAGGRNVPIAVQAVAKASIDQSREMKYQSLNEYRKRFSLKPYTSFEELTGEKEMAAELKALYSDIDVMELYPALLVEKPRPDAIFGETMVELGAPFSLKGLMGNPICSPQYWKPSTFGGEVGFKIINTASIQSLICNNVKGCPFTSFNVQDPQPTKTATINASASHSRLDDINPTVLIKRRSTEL
Put plainly: Inhibition of mouse macrophage COX2.

Usually IC50 stands for the concentration that inhibits the measured activity by half. Higher therefore signals weaker potency.

In turn, `CC1=C(C)Cc2c(c(-c3ccccc3)n(C)c2-c2ccccc2)C1` had an IC50 of 1000 nM.
`Cc1ccc(-c2[nH]c(-c3ccc(C)cc3)c3c2CCCC3)cc1` had an IC50 of 16.7 nM.
In turn, `CS(=O)(=O)c1ccc(-c2[nH]c(-c3ccc(S(C)(=O)=O)cc3)c3c2C2CCC3C2)cc1` had an IC50 of 10000 nM.

These data come from ChEMBL document CHEMBL1141670, “QSAR analysis of 1,3-diaryl-4,5,6,7-tetrahydro-2H-isoindole derivatives as selective COX-2 inhibitors” (Eur J Med Chem, 2008).
